Measured values published in patent publication US20230295118A1 (EnhancedBio Inc., priority 2022, published 2023).

Columns and labels:
Format in all cases: cell-based
CDK4 = molecular target: T1, CDK4 (Homo sapiens, UniProt P11802); test: CDK4 degradation (DC50, Dmax)
T1 construct: endogenous in cells

[1] = system: mantle cell lymphoma cell (Mino or JeKo-1); test: Antiproliferative effect, MTS cell viability assay; conditions: 72 h; for IC50: mantle cell lymphoma cell (Mino or JeKo-1), MTS assay, read-out: IC50 (anti-proliferation)
How it was run: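 Mino cells treated with compounds at 0, 0.0001, 0.001, 0.01, 0.1, 1 μM for 72 h; palbociclib and abemaciclib as positive controls. Viability by MTS, formazan absorbance read at 490 nm.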

CDK6 = molecular target: T2, CDK6 (Homo sapiens, UniProt Q00534); test: CDK6 degradation (DC50, Dmax)
T2 construct: endogenous in cells
T2 sequence (Q00534 whole entry): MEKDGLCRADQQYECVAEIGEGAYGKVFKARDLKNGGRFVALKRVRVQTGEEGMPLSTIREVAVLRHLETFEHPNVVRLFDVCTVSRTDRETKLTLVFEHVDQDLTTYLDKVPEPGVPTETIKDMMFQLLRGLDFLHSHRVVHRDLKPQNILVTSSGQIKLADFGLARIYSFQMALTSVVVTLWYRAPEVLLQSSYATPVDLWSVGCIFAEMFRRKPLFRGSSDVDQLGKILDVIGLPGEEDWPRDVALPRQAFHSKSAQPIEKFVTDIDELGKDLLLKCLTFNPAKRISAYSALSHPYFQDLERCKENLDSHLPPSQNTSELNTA

T1 sequence (P11802 whole entry): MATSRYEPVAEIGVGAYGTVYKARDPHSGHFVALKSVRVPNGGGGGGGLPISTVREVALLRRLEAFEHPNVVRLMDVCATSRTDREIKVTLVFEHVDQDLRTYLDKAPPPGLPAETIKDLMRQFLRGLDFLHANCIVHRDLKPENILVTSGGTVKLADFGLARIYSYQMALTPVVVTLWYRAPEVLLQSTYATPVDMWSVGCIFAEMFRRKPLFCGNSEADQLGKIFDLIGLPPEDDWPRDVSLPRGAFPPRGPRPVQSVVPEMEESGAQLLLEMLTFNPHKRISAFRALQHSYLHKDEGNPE

SMILES	DC50 (CDK4) [nM]	Dmax (CDK4) [%]	IC50 [1] [nM]	DC50 (CDK6) [nM]	Dmax (CDK6) [%]	inhibition of cell proliferation of Mino cells ([1]; Mino cells, 0-1 μM, result in words)
CC(=O)c1c(C)c2cnc(Nc3ccc(N4CCN(C5CN(c6ccc(C(=O)NC7CCC(=O)NC7=O)cc6)C5)CC4)cn3)nc2n(C2CCCC2)c1=O (stereo not drawn) [Compound 102, 4-(3-(4-(6-((6-acetyl-8-cyclopentyl-5-methyl-7-oxo-7,8-dihydropyrido[2,3-d]pyrimidin-2-yl)amino)pyridin-3-yl)piperazin-1-yl)azetidin-1-yl)-N-(2,6-dioxopiperidin-3-yl)benzamide]	50 to 200	> 80	50 to 200	50 to 200	> 60	–
CC(=O)c1c(C)c2cnc(Nc3ccc(N4CCN(CCCN(C)c5cccc6c5C(=O)N(C5CCC(=O)NC5=O)C6=O)CC4)cn3)nc2n(C2CCCC2)c1=O (stereo not drawn) [Compound 103, 4-((3-(4-(6-((6-acetyl-8-cyclopentyl-5-methyl-7-oxo-7,8-dihydropyrido[2,3-d]pyrimidin-2-yl)amino)pyridin-3-yl)piperazin-1-yl)propyl)(methyl)amino)-2-(2,6-dioxopiperidin-3-yl) isoindoline-1,3-dione]	50 to 200	> 60	< 50	50 to 200	> 60	dose-dependent inhibition of cell proliferation
CC(=O)c1c(C)c2cnc(Nc3ccc(N4CCN(C5CCN(c6ccc(N7CCC(=O)NC7=O)cc6)CC5)CC4)cn3)nc2n(C2CCCC2)c1=O [Compound 113, 1-(4-(4-(4-(6-((6-acetyl-8-cyclopentyl-5-methyl-7-oxo-7,8-dibydropyrido[2,3-d]pyrimidin-2-yl)amino)pyridin-3-yl)piperazin-1-yl)piperidin-1-yi)phenyl) dihydropyrimidine-2,4(1H,3H)-dione]	50 to 200	> 80	< 50	< 50	> 80	–
CC(=O)c1c(C)c2cnc(Nc3ccc(N4CCN(C(=O)C5CCN(c6ccc7c(c6)C(=O)N(C6CCC(=O)NC6=O)C7=O)CC5)CC4)cn3)nc2n(C2CCCC2)c1=O (stereo not drawn) [Compound 114, 5-(4-(4-(6-((6-acetyl-8-cyclopentyl-5-methyl-7-oxo-7,8-dihydropyrido[2,3-d]pyrimidin-2-yl)amino)pyridin-3-yl)piperazine-1-carbonyl)piperidin-1-yl)-2-(2,6-dioxopiperidin-3-yl) isoindoline-1,3-dione]	50 to 200	> 80	< 50	50 to 200	> 80	–
CC(=O)c1c(C)c2cnc(Nc3ccc(N4CCN(C(=O)C5CCN(c6ccc7c(c6)CN(C6CCC(=O)NC6=O)C7=O)CC5)CC4)cn3)nc2n(C2CCCC2)c1=O (stereo not drawn) [Compound 115, 3-(5-(4-(4-(6-((6-acetyl-8-cyclopentyl-5-methyl-7-oxo-7,8-dihydropyrido[2,3-d]pyrimidin-2-yl)amino)pyridin-3-yl)piperazine-1-carbonyl)piperidin-1-yl)-1-oxoisoindolin-2-yl)piperidine-2,6-dione]	50 to 200	> 60	< 50	50 to 200	> 60	–
CC(=O)c1c(C)c2cnc(Nc3ccc(N4CCN(C(=O)C5CCN(c6ccc(C(=O)NC7CCC(=O)NC7=O)cc6)CC5)CC4)cn3)nc2n(C2CCCC2)c1=O (stereo not drawn) [Compound 116, 4-(4-(4-(6-((6-acetyl-8-cyclopentyl-5-methyl-7-oxo-7,8-dihydropyrido[2,3-d]pyrimidin-2-yl)amino)pyridin-3-yl)piperazine-1-carbonyl)piperidin-1-yl)-N-(2,6-dioxopiperidin-3-yl)benzamide]	50 to 200	> 80	50 to 200	50 to 200	> 80	–
CC(=O)c1c(C)c2cnc(Nc3ccc(N4CCN(CC5CN(c6ccc7c(c6)CN(C6CCC(=O)NC6=O)C7=O)C5)CC4)cn3)nc2n(C2CCCC2)c1=O (stereo not drawn) [Compound 118, 3-(5-(3-((4-(6-((6-acetyl-8-cyclopentyl-5-methyl-7-oxo-7,8-dihydropyrido[2,3-d]pyrimidin-2-yl)amino)pyridin-3-yl)piperazin-1-yl)methyl)azetidio-1-yl)-1-oxoisoindolin-2-yl)piperidine-2,6-dione]	< 50	> 80	< 50	< 50	> 80	–

The next lines start with results.

DC50 (CDK4) [nM]	Dmax (CDK4) [%]	IC50 [1] [nM]	DC50 (CDK6) [nM]	Dmax (CDK6) [%]	SMILES	inhibition of cell proliferation of Mino cells ([1]; Mino cells, 0-1 μM, result in words)
< 50	> 80	< 50	< 50	> 80	CC(=O)c1c(C)c2cnc(Nc3ccc(N4CCN(CCCNc5ccc(N6CCC(=O)NC6=O)cc5)CC4)cn3)nc2n(C2CCCC2)c1=O [Compound 105, 1-(4-((3-(4-(6-((6-acetyl-8-cyclopentyl-5-methyl-7-oxo-7,8-dihydropyrido[2,3-d]pyrimidin-2-yl)amino)pyridin-3-yl)piperazin-1-yl)propyl)amino)phenyl)dihydro-pyrimidine-2,4 (1H,3H)-dione]	–
< 50	> 80	< 50	< 50	> 80	Cc1nc2c(F)cc(-c3nc(Nc4ccc(CN5CCN(CC6CN(c7ccc(N8CCC(=O)NC8=O)cc7)C6)CC5)cn4)ncc3F)cc2n1C(C)C [Compound 106, 1-(4-(3-((4-((6-((5-fluoro-4-(4-fluoro-1-isopropyl-2-methyl-1H-benzo[d]imidazol-6-yl)pyrimidin-2-yl)amino)pyridin-3-yl)methyl)piperazin-1-yl)methyl)azetidin-1-yl)phenyl) dihydropyrimidine-2,4(1H,3H)-dione]	–
< 50	> 80	< 50	< 50	> 80	Cc1nc2c(F)cc(-c3nc(Nc4ccc(CN5CCN(CCCNc6ccc(N7CCC(=O)NC7=O)cc6)CC5)cn4)ncc3F)cc2n1C(C)C [Compound 107, 1-(4-((3-(4-((6-((5-fluoro-4-(4-fluoro-1-isopropyl-2-methyl-1H-benzo[d]imidazol-6-yl)pyrimidin-2-yl)amino)pyridin-3-yl)methyl)piperazin-1-yl)propyl)amino)phenyl)dihydro-pyrimidine-2,4 (1H,3H)-dione]	–
< 50	> 80	< 50	< 50	> 80	Cc1nc2c(F)cc(-c3nc(Nc4ccc(CN5CCN(CC6CCN(c7ccc(N8CCC(=O)NC8=O)cc7)CC6)CC5)cn4)ncc3F)cc2n1C(C)C [Compound 108, 1-(4-(4-((4-((6-((5-fluoro-4-(4-fluoro-1-isopropyl-2-methyl-1H-benzo[d]imidazol-6-yl)pyrimidin-2-yl)amino)pyridin-3-yl)methyl)piperazin-1-yl)methyl)piperidin-1-yl)phenyl) dihydropyrimidine-2,4(1H,3H)-dione]	–
< 50	> 80	< 50	< 50	> 80	Cc1nc2c(F)cc(-c3nc(Nc4ccc(CN5CCN(C6CCN(c7ccc(N8CCC(=O)NC8=O)cc7)CC6)CC5)cn4)ncc3F)cc2n1C(C)C [Compound 109, 1-(4-(4-(4-((6-((5-fluoro-4-(4-fluoro-1-isopropyl-2-methyl-1H-benzo[d]imidazol-6-yl)pyrimidin-2-yl)amino)pyridin-3-yl)methyl)piperazin-1-yl)piperidin-1-yl)phenyl) dihydropyrimidine-2,4(1H,3H)-dione]	–
< 50	> 80	< 50	< 50	> 80	Cc1nc2c(F)cc(-c3nc(Nc4ccc(CN5CCN(CC6CCCN(c7ccc(N8CCC(=O)NC8=O)cc7)C6)CC5)cn4)ncc3F)cc2n1C(C)C (stereo not drawn) [Compound 110, 1-(4-(3-((4-((6-((5-fluoro-4-(4-fluoro-1-isopropyl-2-methyl-1H-benzo[d]imidazol-6-yl)pyrimidin-2-yl)amino)pyridin-3-yl)methyl)piperazin-1-yl)methyl)piperidin-1-yl)phenyl) dihydropyrimidine-2,4(1H,3H)-dione]	–
< 50	> 80	< 50	< 50	> 80	CC(=O)c1c(C)c2cnc(Nc3ccc(N4CCN(CC5CN(c6ccc(N7CCC(=O)NC7=O)cc6)C5)CC4)cn3)nc2n(C2CCCC2)c1=O [Compound 111, 1-(4-(3-((4-(6-((6-acetyl-8-cyclopentyl-5-methyl-7-oxo-7,8-dihydropyrido[2,3-d]pyrimidin-2-yl)amino)pyridin-3-yl)piperazin-1-yl)methyl)azetidin-1-yl)phenyl) dihydropyrimidine-2,4(1H,3H)-dione]	–
< 50	> 80	< 50	50 to 200	> 80	CC(=O)c1c(C)c2cnc(Nc3ccc(N4CCN(CC5CCN(c6ccc(N7CCC(=O)NC7=O)cc6)CC5)CC4)cn3)nc2n(C2CCCC2)c1=O [Compound 112, 1-(4-(4-((4-(6-((6-acetyl-8-cyclopentyl-5-methyl-7-oxo-7,8-dihydropyrido[2,3-d]pyrimidin-2-yl)amino)pyridin-3-yl)piperazin-1-yl)methyl)piperidin-1-yl)phenyl) dihydropyrimidine-2,4(1H,3H)-dione]	–
< 50	> 80	< 50	50 to 200	> 60	CC(=O)c1c(C)c2cnc(Nc3ccc(N4CCN(C(=O)C5CCN(c6ccc(NC7CCC(=O)NC7=O)cc6)CC5)CC4)cn3)nc2n(C2CCCC2)c1=O (stereo not drawn) [Compound 117, 3-((4-(4-(4-(6-((6-acetyl-8-cyclopentyl-5-methyl-7-oxo-7,8-dihydropyrido[2,3-d]pyrimidin-2-yl)amino)pyridin-3-yl)piperazine-1-carbonyl)piperidin-1-yl)phenyl)amino) piperidine-2,6-dione]	–
